Reference: US10596267B2, “Method and process for quantitative evaluation of pharmacokinetics, therapeutic effects and safety of delivery of drug compounds to the inner ear for treatment of auditory disease” (The Charles Stark Draper Laboratory, Inc., priority 2016, dated 2020)

System: guinea pig cochleae
Test: Reciprocating inner ear delivery of DNQX by micropump via cochleostomy; CAP and DPOAE hearing measurements
Settings: pump infusion via cochleostomy at the basal turn
Method: Infusion began at t=0. A hearing threshold is the minimum sound pressure level (measured in dB SPL) required to generate a response. Data reported are threshold shifts, the change in threshold as compared to baseline. […] CAP amplitudes are also shown, with a legend that is on a log scale.
Reciprocating inner ear delivery and electronically-controlled dosing in a guinea pig model using a pump to infuse a drug via a cochleostomy (made at the basal turn) was evaluated. The drug reservoir was loaded with the glutamate receptor antagonist DNQX (which disrupts hair-cell-to-auditory-nerve synaptic transmission resulting in attenuation of compound action potentials (CAPs) generated in response to auditory stimuli). The molecular weight (232 Daltons) and physicochemical characteristics of DNQX make it a suitable model for evaluating the potential of other small molecule candidates for inner ear delivery. […] DPOAE responses from hair cells (which are not altered by DNQX) were monitored as a control for nonspecific effects.
In the experiments described herein, drug concentration was not measured directly, but was inferred by mapping the drug-mediated CAP inhibition along the length of the ST to calculate drug concentrations at a given location.

Compound: O=[N+]([O-])c1cc2nc(O)c(O)nc2cc1[N+](=O)[O-] [DNQX]
- DPOAE over time (control for nonspecific effects, mechanical damage or conductive hearing loss): lack of alterations in DPOAE over time
- compound action potential (CAP) after initiation of drug delivery (tone-pip-evoked CAP): reduction in CAP
